Reference: patent US10350309B2, “Methods of preparing ophthalmic formulations and uses of same” (Cognoptix, Inc., priority 2013, dated 2019)

Experiments:
[1] = Microscopic examination of mixture after ball milling agitation (particle size, uniformity); type: physicochemical; settings: heavy mineral oil, ball milling with 5 mm grinding media beads
Method: Microscopic examination of mixtures after ball milling can be used to assess uniformity and to estimate the particle size of the fluorescent molecular rotor compounds. Microscopic examination of the mixtures containing Compound 11 were performed using a compound optical microscope with a calibrated eyepiece micrometer, or reticle. For example, the eyepiece micrometer, reticle, can be aligned and calibrated with the stage micrometer by aligning the zero line of the reticle with the zero line of the stage micrometer, and the ratios between the micrometers or scales can be used to determine sizes and distances.

[2] = HPLC analysis of concentration and degradation of Compound 11 in mineral oil mixtures after ball milling agitation; type: physicochemical
Method: The following HPLC method was used to analyze whether the concentration of fluorescent molecular rotor compounds in mixtures of mineral oil and Compound 11 was consistent with the expected concentration of the mixture. The HPLC analysis was also used to evaluate degradation of Compound 11 in the mixture. The HPLC instrument used was a Waters 2695 Separation Module, or equivalent containing a pump capable of delivering a gradient flow rate of 1.0 mL/min or equivalent and a Waters 2487 Multiwavelength Detector, or dual wavelength detector capable of detection at 215 nm and 320 nm, or equivalent. The column used was a Waters Deltapak C18 column, 5 μm, 3.9×150 mm, (Waters Corp., Milford, Mass., Catalog No.: WAT011793). The flow rate was 1.0 mL/min with detection at a wavelength of 215 nm and a column temperature of 25° C. The injection volume used for the concentration sample evaluation was 20 μL and for the related substances sample evaluation was 50 μL. The mobile phases were A: 0.1% trifluoroacetic acid in water, C: methanol, and D: ethanol, and the gradient program shown in Table 2 was used for the HPLC method.
In a mixture sample compared to a standard sample, increased relative peak area of the related substance peak (RT of 3.8 min, Table 3) compared to the peak area of Compound 11 (RT of 8.5 min, Table 3) would indicate degradation of Compound 11. The concentration in the mixture sample of Compound 11 was determined by analyzing the HPLC peak with a retention time of 8.5 min (Table 3) compared to a standard sample of Compound 11.
However, the concentration of the mixture of Compound 11 and heavy mineral oil after ball milling agitation with YTZ® grinding media beads of an average diameter of 0.5 mm was determined by HPLC (RT of 8.5 min, Table 3) to be 4.75 mg/g as compared to an expected concentration of 48.12 mg/g (504.3 mg/10.48 g, mineral oil and Compound 11). […] The concentration as measured by HPLC of the mixture of Compound 11 and heavy mineral oil after ball milling agitation with beads of an average diameter of 5 mm was 44.9 mg/g as compared to an expected concentration of 47.98 mg/g (504.8 mg/10.52 g, mineral oil and Compound 11), which was within the acceptable range.

- particle diameter by microscopic examination [1]: approximately 5 microns
- concentration of the mixture determined by HPLC ([2]; heavy mineral oil, ball milling with YTZ beads of average diameter 0.5 mm, expected 48.12 mg/g): 4.75 mg/g
- concentration of the mixture measured by HPLC ([2]; heavy mineral oil, ball milling with beads of average diameter 5 mm, expected 47.98 mg/g): 44.9 mg/g
- degradation of Compound 11 based on changes in the related substance peak (RT 3.8 min) ([2]; mixture in heavy mineral oil, after ball milling agitation, HPLC): no significant degradation
- degradation of Compound 11 as analyzed by HPLC ([2]; mixture in heavy mineral oil, ball milling agitation with YTZ 5 mm beads): without degradation
Structure (SMILES): COCCOCCOCCOC(=O)/C(C#N)=C/c1ccc2cc(N3CCCCC3)ccc2c1 [Compound 11]
